Experimental data published in patent US7989454B2, “Leukotriene B4 inhibitors” (Hoffmann-La Roche Inc., priority 2002, dated 2011).

test system: BLT1 and BLT2 receptors; assay: Ca2+ flux assay for LTB4 antagonist assay (HL-60 FLIPR); type: cell-based, Human; conditions: retinoic acid induced HL-60 cells endogenously expressing BLT1 and BLT2; inhibition of LTB4-induced Ca2+ flux; 30 min compound preincubation; read-out: LTB4 antagonism (HL-60 FLIPR)
Description: Ca^2+ Flux Assay for LTB4 Antagonist Assay
Human leukemia HL-60 cells endogenously expressing BLT1 and BLT2 receptors were cultured in RPMI-1640 medium supplemented with 20% fetal bovine serum, 2 mM glutamine, 100 U/mL penicillin and 100 ug/mL streptomycin.
Seventy two hours prior to experiment cells are counted using ViaCount reagent, centrifuged and resuspended at 2.0×10^5 cells/ml density with the complete growth media containing 1 μM retinoic acid (Sigma).
On a day of the experiment loading buffer (Calcium-3 Assay Kit, Molecular Devices) was prepared by dissolving the contents of one vial (Express Kit) into 500 ml Hank's Balanced Salt Solution containing 20 mM HEPES and 5 mM probenecid. Equal volume of the loading buffer was mixed with the replacement buffer (Hank's Balanced Salt Solution containing 20 mM HEPES, 0.05% BSA and 5 mM probenecid). Retinoic acid induced HL-60 cells were counted using ViaCount reagent, centrifuged and resuspended at 2.0×10^6 cells/mL density with the loading buffer/replacement buffer, dispensed into 384 well black/clear microplates (Falcon)(25 μL/well) and placed in a 37° C./5% CO2 incubator for 1 hour.
During the incubation, test compounds were prepared at 6× the desired concentration in HBSS/20 mM HEPES/0.05% BSA as well as LTB4 (Biomol) was prepared at 2.2× concentration in HBSS/20 mM HEPES/0.5% BSA buffer.
After the incubation, both the cell and compound plates were brought to the FLIPR and 5 μL of the diluted compounds were transferred to the cell plates by the FLIPR. Plates were then incubated for 30 min at room temperature. After the ½ hour incubation, plates were returned to the FLIPR and 25 μL of 2.2×LTB4 was added to the cell plates. During the assay, fluorescence readings were taken simultaneously from all 384 wells of the cell plate every 1.5 seconds. Five readings were taken to establish a stable baseline, then 25 μL (LTB4) of sample was rapidly and simultaneously added to each well of the cell plate. The fluorescence was continuously monitored before, during and after sample addition for a total elapsed time of 100 seconds. Responses (increase in peak fluorescence) in each well following agonist addition was determined. The initial fluorescence reading from each well, prior to ligand stimulation, was used a zero baseline value for the data from that well. The responses are expressed as % inhibition of the neutral control (neural control: wells that received buffer plus DMSO but no test compound).

IC50 [nM] | SMILES
299 | O=C(O)CCCOc1cccc(CCCCCCOc2cc(C(=O)NCc3ccccc3)cc(-c3c(F)cccc3F)c2)c1CCC(=O)O [Example 5, 4-[3-[6-(5-Benzylcarbamoyl-2′,6′-difluoro-biphenyl-3-yloxy)-hexyl]-2-(2-carboxy-ethyl)-phenoxy]-butyric acid]
47.3 | Cc1cscc1-c1cc(OCCCCCCc2cccc(OCCCC(=O)O)c2CCC(=O)O)cc(C(=O)N2CCN(C)CC2)c1 [Example 24, 4-(2-(2-Carboxy-ethyl)-3-{6-[3-(4-methyl-piperazine-1-carbonyl)-5-(4-methyl-thiophen-3-yl)-phenoxy]-hexyl}-phenoxy)-butyric acid]
0.22 | CN1CCN(C(=O)c2cc(OCCCCCCc3cccc(OCCCC(=O)O)c3CCC(=O)O)cc(-c3ccccc3)c2)CC1 [Example 28, 4-(2-(2-Carboxy-ethyl)-3-{6-[5-(4-methyl-piperazine-1-carbonyl)-biphenyl-3-yloxy]-hexyl}-phenoxy)-butyric acid]
0.14 | CN1CCCN(C(=O)c2cc(OCCCCCCc3cccc(OCCCC(=O)O)c3CCC(=O)O)cc(-c3ccc4c(c3)OCO4)c2)CC1 [Example 36, 4-[3-{6-[3-Benzo[1,3]dioxol-5-yl-5-(4-methyl-[1,4]diazepane-1-carbonyl)-phenoxy]-hexyl}-2-(2-carboxy-ethyl)-phenoxy]-butyric acid]
0.21 | O=C(O)CCCOc1cccc(CCCCCCOc2cc(C(=O)N3CCCCC3)cc(-c3ccc4c(c3)OCO4)c2)c1CCC(=O)O [Example 42, 4-[3-{6-[3-Benzo[1,3]dioxol-5-yl-5-(piperidine-1-carbonyl)-phenoxy]-hexyl}-2-(2-carboxy-ethyl)-phenoxy]-butyric acid]
0.08 | O=C(O)CCCOc1cccc(CCCCCCOc2cc(C(=O)N3CCNCC3)cc(-c3ccc4c(c3)OCO4)c2)c1CCC(=O)O [Example 44, 4-[3-{6-[3-Benzo[1,3]dioxol-5-yl-5-(piperazine-1-carbonyl)-phenoxy]-hexyl}-2-(2-carboxy-ethyl)-phenoxy]-butyric acid]
7.46 | CC1CCCN(C(=O)c2cc(OCCCCCCc3cccc(OCCCC(=O)O)c3CCC(=O)O)cc(-c3ccc4c(c3)OCO4)c2)C1 (stereo not shown) [Example 46, 4-[3-{6-[3-Benzo[1,3]dioxol-5-yl-5-(3-methyl-piperidine-1-carbonyl)-phenoxy]-hexyl}-2-(2-carboxy-ethyl)-phenoxy]-butyric acid]
0.08 | O=C(O)CCCOc1cccc(CCCCCCOc2cc(C(=O)NC3CC3)cc(-c3ccc4c(c3)OCO4)c2)c1CCC(=O)O [Example 51, 4-[3-[6-(3-Benzo[1,3]dioxol-5-yl-5-cyclopropylcarbamoyl-phenoxy)-hexyl]-2-(2-carboxy-ethyl)-phenoxy]-butyric acid]
0.1 | CN(C)C(=O)c1cc(OCCCCCCc2cccc(OCCCC(=O)O)c2CCC(=O)O)cc(-c2ccc3c(c2)OCO3)c1 [Example 53, 4-[3-[6-(3-Benzo[1,3]dioxol-5-yl-5-dimethylcarbamoyl-phenoxy)-hexyl]-2-(2-carboxy-ethyl)-phenoxy]-butyric acid]
0.2 | NC(=O)c1cc(OCCCCCCc2cccc(OCCCC(=O)O)c2CCC(=O)O)cc(-c2ccc3c(c2)OCO3)c1 [Example 55, 4-[3-[6-(3-Benzo[1,3]dioxol-5-yl-5-carbamoyl-phenoxy)-hexyl]-2-(2-carboxy-ethyl)-phenoxy]-butyric acid]
0.21 | O=C(O)CCCOc1cccc(CCCCCCOc2cc(C(=O)NC3CCC3)cc(-c3ccc4c(c3)OCO4)c2)c1CCC(=O)O [Example 61, 4-[3-[6-(3-Benzo[1,3]dioxol-5-yl-5-cyclobutylcarbamoyl-phenoxy)-hexyl]-2-(2-carboxy-ethyl)-phenoxy]-butyric acid]
52.2 | O=C(O)CCCOc1cccc(CCCCCCOc2cc(C(=O)NC3CCC3)cc(-c3cccc(F)c3)c2)c1CCC(=O)O [Example 67, 4-{2-(2-Carboxy-ethyl)-3-[6-(5-cyclobutylcarbamoyl-3′-fluoro-biphenyl-3-yloxy)-hexyl]-phenoxy}-butyric acid]
0.25 | CCN(C)C(=O)c1cc(OCCCCCCc2cccc(OCCCC(=O)O)c2CCC(=O)O)cc(-c2ccc3c(c2)OCO3)c1 [Example 73, 4-[3-{6-[3-Benzo[1,3]dioxol-5-yl-5-(ethyl-methyl-carbamoyl)-phenoxy]-hexyl}-2-(2-carboxy-ethyl)-phenoxy]-butyric acid]
2.41 | CNC(=O)c1cc(OCCCCCCc2cccc(OCCCC(=O)O)c2CCC(=O)O)cc(-c2ccc3c(c2)OCCO3)c1 [Example 77, 4-(2-(2-Carboxy-ethyl)-3-{6-[3-(2,3-dihydro-benzo[1,4]dioxin-6-yl)-5-methylcarbamoyl-phenoxy]-hexyl}-phenoxy)-butyric acid]
0.28 | CN(C)C(=O)c1cc(OCCCCCCc2cccc(OCCCC(=O)O)c2CCC(=O)O)cc(-c2ccsc2)c1 [Example 85, 4-{2-(2-Carboxy-ethyl)-3-[6-(3-dimethylcarbamoyl-5-thiophen-3-yl-phenoxy)-hexyl]-phenoxy}-butyric acid]
0.79 | Cc1ccc(-c2cc(OCCCCCCc3cccc(OCCCC(=O)O)c3CCC(=O)O)cc(C(=O)N(C)C)c2)cc1F [Example 105, 4-{2-(2-Carboxy-ethyl)-3-[6-(5-dimethylcarbamoyl-3′-fluoro-4′-methyl-biphenyl-3-yloxy)-hexyl]-phenoxy}-butyric acid]
0.24 | Cc1ccc(-c2cc(OCCCCCCc3cccc(OCCCC(=O)O)c3CCC(=O)O)cc(C(=O)N(C)C)c2)cc1 [Example 112, 4-{2-(2-Carboxy-ethyl)-3-[6-(5-dimethylcarbamoyl-4′-methyl-biphenyl-3-yloxy)-hexyl]-phenoxy}-butyric acid]
19.5 | CN1CCN(C(=O)c2cc(CCCCCCCc3cccc(OCCCC(=O)O)c3CCC(=O)O)cc(-c3ccccc3)c2)CC1 [Example 118, 4-(2-(2-Carboxy-ethyl)-3-{7-[5-(4-methyl-piperazine-1-carbonyl)-biphenyl-3-yl]-heptyl}-phenoxy)-butyric acid]
15.6 | CN(C)C(=O)c1cc(C#CCCCCCc2cccc(OCCCC(=O)O)c2CCC(=O)O)cc(-c2ccc(O)cc2)c1 [Example 122, 4-{2-(2-Carboxy-ethyl)-3-[7-(5-dimethylcarbamoyl-4′-hydroxy-biphenyl-3-yl)-hept-6-ynyl]-phenoxy}-butyric acid]
